According to patent US20250268884A1, “Deuterated Domperidone for Treating Gastroparesis” (CinDome Pharma, Inc., priority 2022, published 2025):

Test system: adults with idiopathic or diabetic gastroparesis
Test: ANMS GCSI-DD total and subscale scores, ANMS GCSI-DD manual scoring method, Phase 2a
Format: in vivo, human
Settings: for ANMS GCSI-DD early satiety subscale score, Baseline / ANMS GCSI-DD early satiety subscale score, Change from baseline to Day 14/EOT / ANMS GCSI-DD early satiety subscale score, Day 14/EOT / ANMS GCSI-DD early satiety subscale score, Percent change from baseline to Day 14/EOT / ANMS GCSI-DD nausea subscale score, Baseline / ANMS GCSI-DD nausea subscale score, Change from baseline to Day 14/EOT / ANMS GCSI-DD nausea subscale score, Day 14/EOT / ANMS GCSI-DD nausea subscale score, Percent change from baseline to Day 14/EOT / ANMS GCSI-DD postprandial fullness subscale score, Baseline / ANMS GCSI-DD postprandial fullness subscale score, Change from baseline to Day 14/EOT / ANMS GCSI-DD postprandial fullness subscale score, Day 14/EOT / ANMS GCSI-DD postprandial fullness subscale score, Percent change from baseline to Day 14/EOT / ANMS GCSI-DD total score, Baseline / ANMS GCSI-DD total score, Day 14/EOT / ANMS GCSI-DD total score, change from baseline to Day 14/EOT / ANMS GCSI-DD total score, percent change from baseline to Day 14/EOT / ANMS GCSI-DD upper abdominal pain subscale score, Baseline / ANMS GCSI-DD upper abdominal pain subscale score, Change from baseline to Day 14/EOT / ANMS GCSI-DD upper abdominal pain subscale score, Day 14/EOT / ANMS GCSI-DD upper abdominal pain subscale score, Percent change from baseline to Day 14/EOT / ANMS GCSI-DD vomiting subscale score, Baseline / ANMS GCSI-DD vomiting subscale score, Change from baseline to Day 14/EOT / ANMS GCSI-DD vomiting subscale score, Day 14/EOT / ANMS GCSI-DD vomiting subscale score, Percent change from baseline to Day 14/EOT: mean, ITT Population
Source text: As known in the art, the ANMS GCSI-DD covers 5 core relevant symptoms of gastroparesis: nausea, early satiety, postprandial fullness, upper abdominal pain and vomiting. Bloating is included as an exploratory symptom. Symptoms are rated on a severity numeric response scale from 0 (none) to 4 (very severe). Vomiting is captured on a frequency response scale and scored as follows: 0 for no episodes, 1 for one episode, 2 for 2 episodes, 3 for 3 episodes, and 4 for 4 or more episodes. In some embodiments, subjects recall symptoms over the previous 24 hours and completes the ANMS GCSI-DD patient-reported symptom questionnaire. In certain embodiments, the total ANMS GCSI-DD score is calculated as the mean of the 3 subscale scores for severity of nausea/vomiting, postprandial fullness/early satiety, and bloating. See, e.g., “The Use Manual for the ANMS GCSI-DD,” American Neurogastroenterology and Motility Society Gastroparesis Cardinal Symptom Index Daily Diary, 2018; https://www.fda.gov/media/125038/download. In other embodiments, the total ANMS GCSI-DD score is calculated using the ‘manual’ scoring method. The ANMS GCSI-DD manual scoring method is generated by summing the scores on each of the five symptom items (nausea, early satiety, postprandial fullness, upper abdominal pain, and number of vomiting episodes) and then dividing by 5, that is the number of items within the gastroparesis related symptom score. […] The ANMS GCSI-DD gastroparesis symptom daily score can range from 0 to 4. High scores on the ANMS GCSI-DD reflect greater symptom severity. See, e.g., “User Manuel for the ANMS GCSI-DD,” Federal Drug Administration at https://www.fda.gov/media/125038/download, which is hereby incorporated by reference.
The severity scores of 4 gastroparesis-related symptoms (nausea, early satiety, postprandial fullness, upper abdominal pain) range from 0-none to 4-very severe. The vomiting score assesses the number of vomiting episodes during the day, capped at a maximum of 4; thus, the scores for vomiting range from 0 (no episodes of vomiting) to 4 (4 or more episodes of vomiting). Vomiting frequency is scored as 0 episodes, 1 episode, 2 episodes, 3 episodes, or 4 or more episodes (capped as 4).
Table 11 presents the ANMS GCSI-DD total and subscale scores and change and percent change from baseline for the ITT Population using the ANMS GC SI-DD Manual scoring method. […] Subjects receiving placebo also experienced decreases in ANMS GCSI-DD total and subscale scores.

## [2H]c1c([2H])c([2H])c2c([nH]c(=O)n2CCCN2CCC(n3c(=O)[nH]c4cc(Cl)ccc43)CC2)c1[2H] [Deudomperidone, 1-{3-[4-(5-chloro-2-oxo-2,3-dihydro-1H-1,3-benzodiazol-1-yl)piperidin-1yl]propyl}-2,3-dihydro(4,5,6,7-D4)-1H-1,3-benzodiazol-2-one]
5 mg BID
  ANMS GCSI-DD early satiety subscale score, Baseline: 2.63
  ANMS GCSI-DD early satiety subscale score, Change from baseline to Day 14/EOT: −0.85
  ANMS GCSI-DD early satiety subscale score, Day 14/EOT: 1.78
  ANMS GCSI-DD early satiety subscale score, Percent change from baseline to Day 14/EOT: −30.65%
  ANMS GCSI-DD nausea subscale score, Baseline: 2.59
  ANMS GCSI-DD nausea subscale score, Change from baseline to Day 14/EOT: −0.93
  ANMS GCSI-DD nausea subscale score, Day 14/EOT: 1.67
  ANMS GCSI-DD nausea subscale score, Percent change from baseline to Day 14/EOT: −41.32%
  ANMS GCSI-DD postprandial fullness subscale score, Baseline: 2.93
  ANMS GCSI-DD postprandial fullness subscale score, Change from baseline to Day 14/EOT: −0.70
  ANMS GCSI-DD postprandial fullness subscale score, Day 14/EOT: 2.22
  ANMS GCSI-DD postprandial fullness subscale score, Percent change from baseline to Day 14/EOT: −26.11%
  ANMS GCSI-DD total score, Baseline: 2.16
  ANMS GCSI-DD total score, Day 14/EOT: 1.47
  ANMS GCSI-DD total score, change from baseline to Day 14/EOT: −0.69
  ANMS GCSI-DD total score, percent change from baseline to Day 14/EOT: −35.01%
  ANMS GCSI-DD upper abdominal pain subscale score, Baseline: 2.19
  ANMS GCSI-DD upper abdominal pain subscale score, Change from baseline to Day 14/EOT: −0.85
  ANMS GCSI-DD upper abdominal pain subscale score, Day 14/EOT: 1.33
  ANMS GCSI-DD upper abdominal pain subscale score, Percent change from baseline to Day 14/EOT: −43.15%
  ANMS GCSI-DD vomiting subscale score, Baseline: 0.44
  ANMS GCSI-DD vomiting subscale score, Change from baseline to Day 14/EOT: −0.11
  ANMS GCSI-DD vomiting subscale score, Day 14/EOT: 0.33
  ANMS GCSI-DD vomiting subscale score, Percent change from baseline to Day 14/EOT: −64.00%
10 mg BID
  ANMS GCSI-DD early satiety subscale score, Baseline: 2.67
  ANMS GCSI-DD early satiety subscale score, Change from baseline to Day 14/EOT: −1.08
  ANMS GCSI-DD early satiety subscale score, Day 14/EOT: 1.62
  ANMS GCSI-DD early satiety subscale score, Percent change from baseline to Day 14/EOT: −40.56%
  ANMS GCSI-DD nausea subscale score, Baseline: 2.52
  ANMS GCSI-DD nausea subscale score, Change from baseline to Day 14/EOT: −1.20
  ANMS GCSI-DD nausea subscale score, Day 14/EOT: 1.34
  ANMS GCSI-DD nausea subscale score, Percent change from baseline to Day 14/EOT: −48.88%
  ANMS GCSI-DD postprandial fullness subscale score, Baseline: 3.01
  ANMS GCSI-DD postprandial fullness subscale score, Change from baseline to Day 14/EOT: −1.24
  ANMS GCSI-DD postprandial fullness subscale score, Day 14/EOT: 1.79
  ANMS GCSI-DD postprandial fullness subscale score, Percent change from baseline to Day 14/EOT: −41.52%
  ANMS GCSI-DD total score, Baseline: 2.14
  ANMS GCSI-DD total score, Day 14/EOT: 1.17
  ANMS GCSI-DD total score, change from baseline to Day 14/EOT: −0.98
  ANMS GCSI-DD total score, percent change from baseline to Day 14/EOT: −44.07%
  ANMS GCSI-DD upper abdominal pain subscale score, Baseline: 1.79
  ANMS GCSI-DD upper abdominal pain subscale score, Change from baseline to Day 14/EOT: −0.80
  ANMS GCSI-DD upper abdominal pain subscale score, Day 14/EOT: 0.97
  ANMS GCSI-DD upper abdominal pain subscale score, Percent change from baseline to Day 14/EOT: −50.43%
  ANMS GCSI-DD vomiting subscale score, Baseline: 0.71
  ANMS GCSI-DD vomiting subscale score, Change from baseline to Day 14/EOT: −0.59
  ANMS GCSI-DD vomiting subscale score, Day 14/EOT: 0.14
  ANMS GCSI-DD vomiting subscale score, Percent change from baseline to Day 14/EOT: −71.73%
20 mg QD
  ANMS GCSI-DD early satiety subscale score, Baseline: 2.64
  ANMS GCSI-DD early satiety subscale score, Change from baseline to Day 14/EOT: −1.44
  ANMS GCSI-DD early satiety subscale score, Day 14/EOT: 1.20
  ANMS GCSI-DD early satiety subscale score, Percent change from baseline to Day 14/EOT: −54.88%
  ANMS GCSI-DD nausea subscale score, Baseline: 2.67
  ANMS GCSI-DD nausea subscale score, Change from baseline to Day 14/EOT: −1.93
  ANMS GCSI-DD nausea subscale score, Day 14/EOT: 0.73
  ANMS GCSI-DD nausea subscale score, Percent change from baseline to Day 14/EOT: −62.56%
  ANMS GCSI-DD postprandial fullness subscale score, Baseline: 2.84
  ANMS GCSI-DD postprandial fullness subscale score, Change from baseline to Day 14/EOT: −1.31
  ANMS GCSI-DD postprandial fullness subscale score, Day 14/EOT: 1.53
  ANMS GCSI-DD postprandial fullness subscale score, Percent change from baseline to Day 14/EOT: −45.50%
  ANMS GCSI-DD total score, Baseline: 2.13
  ANMS GCSI-DD total score, Day 14/EOT: 0.88
  ANMS GCSI-DD total score, change from baseline to Day 14/EOT: −1.25
  ANMS GCSI-DD total score, percent change from baseline to Day 14/EOT: −55.99%
  ANMS GCSI-DD upper abdominal pain subscale score, Baseline: 1.96
  ANMS GCSI-DD upper abdominal pain subscale score, Change from baseline to Day 14/EOT: −1.09
  ANMS GCSI-DD upper abdominal pain subscale score, Day 14/EOT: 0.87
  ANMS GCSI-DD upper abdominal pain subscale score, Percent change from baseline to Day 14/EOT: −41.03%
  ANMS GCSI-DD vomiting subscale score, Baseline: 0.53
  ANMS GCSI-DD vomiting subscale score, Change from baseline to Day 14/EOT: −0.47
  ANMS GCSI-DD vomiting subscale score, Day 14/EOT: 0.07
  ANMS GCSI-DD vomiting subscale score, Percent change from baseline to Day 14/EOT: −94.64%
All deudomperidone treatment groups, placebo also decreased
  ANMS GCSI-DD total score and all subscale scores at Day 14/EOT, manual scoring: decreased from baseline
